Data reported in patent publication US10167262B2, “Herbicidal substituted 3-arylpyrazoles” (FMC CORPORATION, priority 2014, dated 2019).

Each compound was assayed on waterhemp_RES2, (ALS & HPPD resistant common waterhemp, Amaranthus rudis) (assay: Test E postemergence greenhouse test, plant response rating 0-100). Details: 31 g ai/ha, scale 0 to 100.
Format: in vivo
Experimental: At the same time, plants from these crop and weed species and also waterhemp_RES1, (ALS & Triazine resistant common waterhemp, Amaranthus rudis), and waterhemp_RES2, (ALS & HPPD resistant common waterhemp, Amaranthus rudis) were planted in pots containing Redi-Earth® planting medium (Scotts Company, 14111 Scottslawn Road, Marysville, Ohio 43041) comprising spaghnum peat moss, vermiculite, wetting agent and starter nutrients were treated with postemergence applications of test chemicals formulated in the same manner. Plants ranged in height from 2 to 18 cm for postemergence treatments (1- to 4-leaf stage).
Treated plants and controls were maintained in a greenhouse for 14 to 21 days, after which time all species were compared to controls and visually evaluated. Plant response ratings, summarized in Table E, are based on a scale of 0 to 100 where 0 is no effect and 100 is complete control. A dash (-) response means no test result.

Structure (SMILES)	Plant response rating, Waterhemp_RES2
Cn1cc(C(=O)c2cccs2)c(-c2cc(Cl)cc(Cl)c2)n1 [Compound 17]	60

Same assay, conditions: 62 g ai/ha, scale 0 to 100

Structure (SMILES)	Plant response rating, Waterhemp_RES2
Cn1cc(C(=O)c2cccs2)c(-c2cc(Cl)cc(Cl)c2)n1 [Compound 17]	75

Same assay, conditions: 125 g ai/ha, scale 0 to 100

Structure (SMILES)	Plant response rating, Waterhemp_RES2
Cn1cc(C(=O)c2cccs2)c(-c2cc(Cl)cc(Cl)c2)n1 [Compound 17]	80

Same assay, conditions: 250 g ai/ha, scale 0 to 100

Structure (SMILES)	Plant response rating, Waterhemp_RES2
Cn1cc(C(=O)c2cccs2)c(-c2cc(Cl)cc(Cl)c2)n1 [Compound 17]	85

Same assay, conditions: 500 g ai/ha, scale 0 to 100

Structure (SMILES)	Plant response rating, Waterhemp_RES2
Cn1cc(C(=O)c2cccs2)c(-c2cc(Cl)cc(Cl)c2)n1 [Compound 17]	95

These compounds were tested on cocklebur (common cocklebur, Xanthium strumarium) (assay: Test C postemergence greenhouse test, plant response rating 0-100). Details: 62 g ai/ha.
Format: in vivo
Summary of the method: (§1)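 Scores run from 0, meaning no effect, to 100, meaning complete control, and come from visual comparison with untreated controls. Treatment was a postemergence application to plants 2–18 cm tall. Assessment followed 13 to 15 days of greenhouse growth.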

Structure (SMILES)	Plant response rating (0 to 100), Cocklebur
Cn1cc(C(=O)c2cccs2)c(-c2cc(Cl)cc(Cl)c2)n1 [Compound 17]	5

Same assay, conditions: 125 g ai/ha

Structure (SMILES)	Plant response rating (0 to 100), Cocklebur
Cn1cc(C(=O)c2cccs2)c(-c2cc(Cl)cc(Cl)c2)n1 [Compound 17]	10

Same assay, conditions: 250 g ai/ha, scale 0 to 100

Structure (SMILES)	Plant response rating, Cocklebur
Cn1cc(C(=O)c2cccs2)c(-c2cc(Cl)cc(Cl)c2)n1 [Compound 17]	30

Same assay, conditions: 500 g ai/ha, scale 0 to 100

Structure (SMILES)	Plant response rating, Cocklebur
Cn1cc(C(=O)c2cccs2)c(-c2cc(Cl)cc(Cl)c2)n1 [Compound 17]	40

These compounds were tested on woolly cupgrass (Eriochloa villosa) in the same assay as above. Details: 62 g ai/ha.
Format: in vivo
Summary of the method: as §1

Structure (SMILES)	Plant response rating (0 to 100), Cupgrass, Woolly
Cn1cc(C(=O)c2cccs2)c(-c2cc(Cl)cc(Cl)c2)n1 [Compound 17]	0

Same assay, conditions: 125 g ai/ha

Structure (SMILES)	Plant response rating (0 to 100), Cupgrass, Woolly
Cn1cc(C(=O)c2cccs2)c(-c2cc(Cl)cc(Cl)c2)n1 [Compound 17]	0

Same assay, conditions: 250 g ai/ha, scale 0 to 100

Structure (SMILES)	Plant response rating, Cupgrass, Woolly
Cn1cc(C(=O)c2cccs2)c(-c2cc(Cl)cc(Cl)c2)n1 [Compound 17]	0

Same assay, conditions: 500 g ai/ha, scale 0 to 100

Structure (SMILES)	Plant response rating, Cupgrass, Woolly
Cn1cc(C(=O)c2cccs2)c(-c2cc(Cl)cc(Cl)c2)n1 [Compound 17]	15

Each compound was assayed on windgrass (Apera spica-venti) in the same assay as above. Details: 62 g ai/ha.
Format: in vivo
Summary of the method: as §1

Structure (SMILES)	Plant response rating (0 to 100), Windgrass
Cn1cc(C(=O)c2cccs2)c(-c2cc(Cl)cc(Cl)c2)n1 [Compound 17]	0

Same assay, conditions: 125 g ai/ha

Structure (SMILES)	Plant response rating (0 to 100), Windgrass
Cn1cc(C(=O)c2cccs2)c(-c2cc(Cl)cc(Cl)c2)n1 [Compound 17]	0

Same assay, conditions: 250 g ai/ha, scale 0 to 100

Structure (SMILES)	Plant response rating, Windgrass
Cn1cc(C(=O)c2cccs2)c(-c2cc(Cl)cc(Cl)c2)n1 [Compound 17]	0

Same assay, conditions: 500 g ai/ha, scale 0 to 100

Structure (SMILES)	Plant response rating, Windgrass
Cn1cc(C(=O)c2cccs2)c(-c2cc(Cl)cc(Cl)c2)n1 [Compound 17]	0

What follows are compounds tested on downy bromegrass (Bromus tectorum) in the same assay as above. Details: 62 g ai/ha.
Format: in vivo
Summary of the method: as §1

Structure (SMILES)	Plant response rating (0 to 100), Bromegrass, Downy
Cn1cc(C(=O)c2cccs2)c(-c2cc(Cl)cc(Cl)c2)n1 [Compound 17]	0

Same assay, conditions: 125 g ai/ha, scale 0 to 100

Structure (SMILES)	Plant response rating, Bromegrass, Downy
Cn1cc(C(=O)c2cccs2)c(-c2cc(Cl)cc(Cl)c2)n1 [Compound 17]	0

Same assay, conditions: 250 g ai/ha, scale 0 to 100

Structure (SMILES)	Plant response rating, Bromegrass, Downy
Cn1cc(C(=O)c2cccs2)c(-c2cc(Cl)cc(Cl)c2)n1 [Compound 17]	0

Same assay, conditions: 500 g ai/ha, scale 0 to 100

Structure (SMILES)	Plant response rating, Bromegrass, Downy
Cn1cc(C(=O)c2cccs2)c(-c2cc(Cl)cc(Cl)c2)n1 [Compound 17]	0

These compounds were tested on green foxtail (Setaria viridis) in the same assay as above. Details: 62 g ai/ha.
Format: in vivo
Summary of the method: as §1

Structure (SMILES)	Plant response rating (0 to 100), Foxtail, Green
Cn1cc(C(=O)c2cccs2)c(-c2cc(Cl)cc(Cl)c2)n1 [Compound 17]	0

Same assay, conditions: 125 g ai/ha

Structure (SMILES)	Plant response rating (0 to 100), Foxtail, Green
Cn1cc(C(=O)c2cccs2)c(-c2cc(Cl)cc(Cl)c2)n1 [Compound 17]	0

Same assay, conditions: 250 g ai/ha, scale 0 to 100

Structure (SMILES)	Plant response rating, Foxtail, Green
Cn1cc(C(=O)c2cccs2)c(-c2cc(Cl)cc(Cl)c2)n1 [Compound 17]	0

Same assay, conditions: 500 g ai/ha, scale 0 to 100

Structure (SMILES)	Plant response rating, Foxtail, Green
Cn1cc(C(=O)c2cccs2)c(-c2cc(Cl)cc(Cl)c2)n1 [Compound 17]	0

What follows are compounds tested on canarygrass (Phalaris minor) in the same assay as above. Details: 62 g ai/ha.
Format: in vivo
Summary of the method: as §1

Structure (SMILES)	Plant response rating (0 to 100), Canarygrass
Cn1cc(C(=O)c2cccs2)c(-c2cc(Cl)cc(Cl)c2)n1 [Compound 17]	0

Same assay, conditions: 125 g ai/ha

Structure (SMILES)	Plant response rating (0 to 100), Canarygrass
Cn1cc(C(=O)c2cccs2)c(-c2cc(Cl)cc(Cl)c2)n1 [Compound 17]	0

Same assay, conditions: 250 g ai/ha, scale 0 to 100

Structure (SMILES)	Plant response rating, Canarygrass
Cn1cc(C(=O)c2cccs2)c(-c2cc(Cl)cc(Cl)c2)n1 [Compound 17]	0

Same assay, conditions: 500 g ai/ha, scale 0 to 100

Structure (SMILES)	Plant response rating, Canarygrass
Cn1cc(C(=O)c2cccs2)c(-c2cc(Cl)cc(Cl)c2)n1 [Compound 17]	5

Each compound was assayed on deadnettle (henbit deadnettle, Lamium amplexicaule) in the same assay as above. Details: 62 g ai/ha.
Format: in vivo
Summary of the method: as §1

Structure (SMILES)	Plant response rating (0 to 100), Deadnettle
Cn1cc(C(=O)c2cccs2)c(-c2cc(Cl)cc(Cl)c2)n1 [Compound 17]	0

Same assay, conditions: 125 g ai/ha

Structure (SMILES)	Plant response rating (0 to 100), Deadnettle
Cn1cc(C(=O)c2cccs2)c(-c2cc(Cl)cc(Cl)c2)n1 [Compound 17]	0

Same assay, conditions: 250 g ai/ha, scale 0 to 100

Structure (SMILES)	Plant response rating, Deadnettle
Cn1cc(C(=O)c2cccs2)c(-c2cc(Cl)cc(Cl)c2)n1 [Compound 17]	0

Same assay, conditions: 500 g ai/ha, scale 0 to 100

Structure (SMILES)	Plant response rating, Deadnettle
Cn1cc(C(=O)c2cccs2)c(-c2cc(Cl)cc(Cl)c2)n1 [Compound 17]	0

These compounds were tested on winter barley (Hordeum vulgare) in the same assay as above. Details: 62 g ai/ha.
Format: in vivo
Summary of the method: as §1

Structure (SMILES)	Plant response rating (0 to 100), Barley
Cn1cc(C(=O)c2cccs2)c(-c2cc(Cl)cc(Cl)c2)n1 [Compound 17]	0

Same assay, conditions: 125 g ai/ha, scale 0 to 100

Structure (SMILES)	Plant response rating, Barley
Cn1cc(C(=O)c2cccs2)c(-c2cc(Cl)cc(Cl)c2)n1 [Compound 17]	0

Same assay, conditions: 250 g ai/ha, scale 0 to 100

Structure (SMILES)	Plant response rating, Barley
Cn1cc(C(=O)c2cccs2)c(-c2cc(Cl)cc(Cl)c2)n1 [Compound 17]	0

Same assay, conditions: 500 g ai/ha, scale 0 to 100

Structure (SMILES)	Plant response rating, Barley
Cn1cc(C(=O)c2cccs2)c(-c2cc(Cl)cc(Cl)c2)n1 [Compound 17]	0

Each compound was assayed on surinam grass (Brachiaria decumbens) in the same assay as above. Details: 62 g ai/ha.
Format: in vivo
Summary of the method: as §1

Structure (SMILES)	Plant response rating (0 to 100), Surinam Grass
Cn1cc(C(=O)c2cccs2)c(-c2cc(Cl)cc(Cl)c2)n1 [Compound 17]	0

Same assay, conditions: 125 g ai/ha

Structure (SMILES)	Plant response rating (0 to 100), Surinam Grass
Cn1cc(C(=O)c2cccs2)c(-c2cc(Cl)cc(Cl)c2)n1 [Compound 17]	0

Same assay, conditions: 250 g ai/ha, scale 0 to 100

Structure (SMILES)	Plant response rating, Surinam Grass
Cn1cc(C(=O)c2cccs2)c(-c2cc(Cl)cc(Cl)c2)n1 [Compound 17]	5

Same assay, conditions: 500 g ai/ha, scale 0 to 100

Structure (SMILES)	Plant response rating, Surinam Grass
Cn1cc(C(=O)c2cccs2)c(-c2cc(Cl)cc(Cl)c2)n1 [Compound 17]	5
